From PMC5564600 (Oncotarget, 2017)

What was measured:
Assay in all cases: biochemical
Format in all cases: binding
panel of 442 kinases [1] = molecular target: T1, panel of 442 kinases (Mycobacterium tuberculosis, UniProt P9WI81); settings: for remaining activity at 1 µM: read-out: PKNB(M.tuberculosis) (% of control at 1 µM); for remaining activity at 10 µM: read-out: PKNB(M.tuberculosis) (% of control at 10 µM)
T1 construct: purchased Ambit Biosciences (scanMAXX KINOMEscan)

panel of 442 kinases [2] = molecular target: T2, panel of 442 kinases (Homo sapiens, UniProt P00533, G719S); settings: EGFR(G719S); for remaining activity at 1 µM: read-out: % of control at 1 µM
T2 construct: purchased Ambit Biosciences (scanMAXX KINOMEscan)
T2 sequence (P00533 25-1210 G719S): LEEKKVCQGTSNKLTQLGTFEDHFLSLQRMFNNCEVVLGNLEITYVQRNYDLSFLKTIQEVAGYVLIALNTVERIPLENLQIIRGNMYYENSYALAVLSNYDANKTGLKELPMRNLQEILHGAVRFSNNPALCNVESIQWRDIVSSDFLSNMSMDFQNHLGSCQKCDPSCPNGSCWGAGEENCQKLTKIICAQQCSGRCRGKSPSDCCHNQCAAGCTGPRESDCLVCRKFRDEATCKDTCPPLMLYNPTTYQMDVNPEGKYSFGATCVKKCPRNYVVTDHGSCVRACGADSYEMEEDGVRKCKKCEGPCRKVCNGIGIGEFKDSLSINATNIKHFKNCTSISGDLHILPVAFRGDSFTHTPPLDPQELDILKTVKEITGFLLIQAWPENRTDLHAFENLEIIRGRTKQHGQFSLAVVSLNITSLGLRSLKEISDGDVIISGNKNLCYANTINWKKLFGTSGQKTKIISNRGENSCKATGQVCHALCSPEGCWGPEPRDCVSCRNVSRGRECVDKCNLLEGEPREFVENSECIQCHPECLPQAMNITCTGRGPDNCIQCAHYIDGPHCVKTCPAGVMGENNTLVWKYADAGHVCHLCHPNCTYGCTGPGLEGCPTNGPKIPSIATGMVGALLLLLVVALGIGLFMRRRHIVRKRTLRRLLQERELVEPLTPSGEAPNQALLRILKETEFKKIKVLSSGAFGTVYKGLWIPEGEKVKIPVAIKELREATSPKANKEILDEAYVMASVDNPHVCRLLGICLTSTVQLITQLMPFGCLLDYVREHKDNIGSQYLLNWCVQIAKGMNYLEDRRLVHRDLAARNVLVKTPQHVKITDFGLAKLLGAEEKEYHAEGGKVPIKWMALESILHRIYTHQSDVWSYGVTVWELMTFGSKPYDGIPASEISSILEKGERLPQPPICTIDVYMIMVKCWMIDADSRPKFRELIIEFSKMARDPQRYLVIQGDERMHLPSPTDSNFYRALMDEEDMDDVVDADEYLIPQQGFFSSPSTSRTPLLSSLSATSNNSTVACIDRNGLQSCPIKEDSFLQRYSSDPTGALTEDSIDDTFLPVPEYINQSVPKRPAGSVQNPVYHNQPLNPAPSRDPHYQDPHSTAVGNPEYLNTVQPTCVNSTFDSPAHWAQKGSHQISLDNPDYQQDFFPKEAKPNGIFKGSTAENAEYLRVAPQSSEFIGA

panel of 442 kinases [3] = molecular target: T3, panel of 442 kinases (Homo sapiens, UniProt Q9UEW8); settings: kinase STK39; for remaining activity at 1 µM: read-out: STK39 (% of control at 1 µM)
T3 construct: purchased Ambit Biosciences (scanMAXX KINOMEscan)

panel of 442 kinases [4] = molecular target: T4, panel of 442 kinases (Homo sapiens, UniProt Q12852); settings: DLK; for remaining activity at 1 µM: read-out: % of control at 1 µM
T4 construct: purchased Ambit Biosciences (scanMAXX KINOMEscan)
T4 sequence (Q12852 1-859): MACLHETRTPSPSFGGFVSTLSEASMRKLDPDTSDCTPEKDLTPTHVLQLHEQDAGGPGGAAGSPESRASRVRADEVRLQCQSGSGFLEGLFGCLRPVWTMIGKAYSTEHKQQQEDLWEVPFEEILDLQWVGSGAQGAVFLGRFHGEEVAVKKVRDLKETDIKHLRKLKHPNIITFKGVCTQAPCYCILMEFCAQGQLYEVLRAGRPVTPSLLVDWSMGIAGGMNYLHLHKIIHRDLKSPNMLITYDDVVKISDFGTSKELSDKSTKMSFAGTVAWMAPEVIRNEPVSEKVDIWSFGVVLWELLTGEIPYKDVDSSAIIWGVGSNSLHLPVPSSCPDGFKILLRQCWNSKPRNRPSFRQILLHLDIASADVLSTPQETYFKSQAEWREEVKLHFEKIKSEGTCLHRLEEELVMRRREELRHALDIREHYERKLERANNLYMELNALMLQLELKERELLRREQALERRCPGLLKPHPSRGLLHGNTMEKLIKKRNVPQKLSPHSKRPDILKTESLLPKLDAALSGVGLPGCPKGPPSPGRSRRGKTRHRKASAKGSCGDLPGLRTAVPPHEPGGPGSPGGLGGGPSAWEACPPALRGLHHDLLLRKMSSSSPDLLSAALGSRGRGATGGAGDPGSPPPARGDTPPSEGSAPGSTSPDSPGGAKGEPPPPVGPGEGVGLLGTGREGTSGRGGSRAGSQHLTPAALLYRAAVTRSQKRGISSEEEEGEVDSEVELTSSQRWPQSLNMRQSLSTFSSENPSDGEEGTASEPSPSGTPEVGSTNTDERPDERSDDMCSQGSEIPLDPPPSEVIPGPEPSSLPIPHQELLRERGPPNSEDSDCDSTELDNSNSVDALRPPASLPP

panel of 442 kinases [5] = molecular target: T5, panel of 442 kinases (Homo sapiens, UniProt Q9BQI3); settings: EIF2AK1; for remaining activity at 1 µM: read-out: % of control at 1 µM
T5 construct: purchased Ambit Biosciences (scanMAXX KINOMEscan)
T5 sequence (Q9BQI3 whole entry): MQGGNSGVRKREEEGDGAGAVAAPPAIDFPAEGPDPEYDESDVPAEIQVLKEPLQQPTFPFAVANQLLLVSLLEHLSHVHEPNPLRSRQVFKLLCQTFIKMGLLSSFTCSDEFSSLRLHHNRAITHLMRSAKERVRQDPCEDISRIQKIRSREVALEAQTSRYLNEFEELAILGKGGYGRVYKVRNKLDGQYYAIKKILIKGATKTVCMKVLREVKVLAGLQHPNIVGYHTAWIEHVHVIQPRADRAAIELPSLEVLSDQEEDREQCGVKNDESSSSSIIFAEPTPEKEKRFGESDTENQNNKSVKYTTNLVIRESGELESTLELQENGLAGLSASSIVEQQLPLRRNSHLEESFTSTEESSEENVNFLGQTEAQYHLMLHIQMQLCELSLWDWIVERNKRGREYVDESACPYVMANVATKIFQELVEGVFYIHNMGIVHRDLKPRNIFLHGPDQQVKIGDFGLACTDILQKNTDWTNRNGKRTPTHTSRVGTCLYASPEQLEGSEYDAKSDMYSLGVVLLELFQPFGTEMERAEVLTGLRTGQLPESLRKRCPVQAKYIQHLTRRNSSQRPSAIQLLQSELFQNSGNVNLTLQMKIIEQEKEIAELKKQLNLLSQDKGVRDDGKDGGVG

panel of 442 kinases [6] = molecular target: T6, panel of 442 kinases (Homo sapiens, UniProt Q9NQU5); settings: kinase PAK6; for remaining activity at 1 µM: read-out: % of control at 1 µM
T6 construct: purchased Ambit Biosciences (scanMAXX KINOMEscan)
T6 sequence (Q9NQU5 whole entry): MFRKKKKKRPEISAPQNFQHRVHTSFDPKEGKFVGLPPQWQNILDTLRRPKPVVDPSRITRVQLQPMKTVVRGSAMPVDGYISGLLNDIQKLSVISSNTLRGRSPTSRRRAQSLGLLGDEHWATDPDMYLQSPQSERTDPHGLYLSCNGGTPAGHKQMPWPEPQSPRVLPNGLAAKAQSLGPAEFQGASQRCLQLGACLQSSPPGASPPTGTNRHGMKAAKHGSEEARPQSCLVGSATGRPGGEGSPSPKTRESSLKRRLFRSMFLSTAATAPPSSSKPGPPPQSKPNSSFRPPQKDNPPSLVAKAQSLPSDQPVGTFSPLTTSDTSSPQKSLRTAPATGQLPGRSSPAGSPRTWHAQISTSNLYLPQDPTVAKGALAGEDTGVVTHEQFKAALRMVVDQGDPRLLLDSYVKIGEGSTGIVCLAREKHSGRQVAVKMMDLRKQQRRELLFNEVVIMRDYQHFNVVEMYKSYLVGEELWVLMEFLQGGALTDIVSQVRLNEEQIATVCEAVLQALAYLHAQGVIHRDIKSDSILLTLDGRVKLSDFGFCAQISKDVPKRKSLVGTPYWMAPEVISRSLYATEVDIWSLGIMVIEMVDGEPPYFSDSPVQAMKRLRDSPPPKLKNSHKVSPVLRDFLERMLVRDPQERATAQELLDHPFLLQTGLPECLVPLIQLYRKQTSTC

panel of 442 kinases [7] = molecular target: T7, panel of 442 kinases (Homo sapiens, UniProt P36888); settings: FLT3; for remaining activity at 1 µM: read-out: % of control at 1 µM
T7 construct: purchased Ambit Biosciences (scanMAXX KINOMEscan)
T7 sequence (P36888 27-993): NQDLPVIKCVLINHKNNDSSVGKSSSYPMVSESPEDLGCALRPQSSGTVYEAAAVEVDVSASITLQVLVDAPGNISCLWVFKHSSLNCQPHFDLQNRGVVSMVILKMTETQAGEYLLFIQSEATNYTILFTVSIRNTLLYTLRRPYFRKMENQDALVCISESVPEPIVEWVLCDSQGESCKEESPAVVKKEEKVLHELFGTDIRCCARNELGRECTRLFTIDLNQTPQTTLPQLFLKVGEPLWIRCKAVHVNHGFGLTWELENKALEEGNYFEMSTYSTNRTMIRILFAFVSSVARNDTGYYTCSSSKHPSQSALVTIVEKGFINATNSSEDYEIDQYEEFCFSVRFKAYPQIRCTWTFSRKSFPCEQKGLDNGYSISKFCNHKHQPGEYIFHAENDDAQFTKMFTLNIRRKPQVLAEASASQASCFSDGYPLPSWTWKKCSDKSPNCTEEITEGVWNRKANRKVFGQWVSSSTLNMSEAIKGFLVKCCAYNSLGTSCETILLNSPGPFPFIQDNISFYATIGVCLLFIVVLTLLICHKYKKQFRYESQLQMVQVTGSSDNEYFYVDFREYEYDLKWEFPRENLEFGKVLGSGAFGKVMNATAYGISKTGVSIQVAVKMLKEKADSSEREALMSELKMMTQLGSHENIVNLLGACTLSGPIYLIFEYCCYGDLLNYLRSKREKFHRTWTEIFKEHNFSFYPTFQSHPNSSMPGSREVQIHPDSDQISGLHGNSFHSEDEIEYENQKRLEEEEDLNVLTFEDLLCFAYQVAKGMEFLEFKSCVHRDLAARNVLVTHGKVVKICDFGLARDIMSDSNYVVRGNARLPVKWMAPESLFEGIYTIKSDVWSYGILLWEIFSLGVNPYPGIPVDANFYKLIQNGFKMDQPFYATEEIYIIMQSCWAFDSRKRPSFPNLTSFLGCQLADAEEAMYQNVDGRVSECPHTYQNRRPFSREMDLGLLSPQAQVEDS

panel of 442 kinases [8] = molecular target: T8, panel of 442 kinases (Homo sapiens, UniProt Q8N4C8); settings: kinase MINK; for remaining activity at 1 µM: read-out: % of control at 1 µM
T8 construct: purchased Ambit Biosciences (scanMAXX KINOMEscan)
T8 sequence (Q8N4C8 whole entry): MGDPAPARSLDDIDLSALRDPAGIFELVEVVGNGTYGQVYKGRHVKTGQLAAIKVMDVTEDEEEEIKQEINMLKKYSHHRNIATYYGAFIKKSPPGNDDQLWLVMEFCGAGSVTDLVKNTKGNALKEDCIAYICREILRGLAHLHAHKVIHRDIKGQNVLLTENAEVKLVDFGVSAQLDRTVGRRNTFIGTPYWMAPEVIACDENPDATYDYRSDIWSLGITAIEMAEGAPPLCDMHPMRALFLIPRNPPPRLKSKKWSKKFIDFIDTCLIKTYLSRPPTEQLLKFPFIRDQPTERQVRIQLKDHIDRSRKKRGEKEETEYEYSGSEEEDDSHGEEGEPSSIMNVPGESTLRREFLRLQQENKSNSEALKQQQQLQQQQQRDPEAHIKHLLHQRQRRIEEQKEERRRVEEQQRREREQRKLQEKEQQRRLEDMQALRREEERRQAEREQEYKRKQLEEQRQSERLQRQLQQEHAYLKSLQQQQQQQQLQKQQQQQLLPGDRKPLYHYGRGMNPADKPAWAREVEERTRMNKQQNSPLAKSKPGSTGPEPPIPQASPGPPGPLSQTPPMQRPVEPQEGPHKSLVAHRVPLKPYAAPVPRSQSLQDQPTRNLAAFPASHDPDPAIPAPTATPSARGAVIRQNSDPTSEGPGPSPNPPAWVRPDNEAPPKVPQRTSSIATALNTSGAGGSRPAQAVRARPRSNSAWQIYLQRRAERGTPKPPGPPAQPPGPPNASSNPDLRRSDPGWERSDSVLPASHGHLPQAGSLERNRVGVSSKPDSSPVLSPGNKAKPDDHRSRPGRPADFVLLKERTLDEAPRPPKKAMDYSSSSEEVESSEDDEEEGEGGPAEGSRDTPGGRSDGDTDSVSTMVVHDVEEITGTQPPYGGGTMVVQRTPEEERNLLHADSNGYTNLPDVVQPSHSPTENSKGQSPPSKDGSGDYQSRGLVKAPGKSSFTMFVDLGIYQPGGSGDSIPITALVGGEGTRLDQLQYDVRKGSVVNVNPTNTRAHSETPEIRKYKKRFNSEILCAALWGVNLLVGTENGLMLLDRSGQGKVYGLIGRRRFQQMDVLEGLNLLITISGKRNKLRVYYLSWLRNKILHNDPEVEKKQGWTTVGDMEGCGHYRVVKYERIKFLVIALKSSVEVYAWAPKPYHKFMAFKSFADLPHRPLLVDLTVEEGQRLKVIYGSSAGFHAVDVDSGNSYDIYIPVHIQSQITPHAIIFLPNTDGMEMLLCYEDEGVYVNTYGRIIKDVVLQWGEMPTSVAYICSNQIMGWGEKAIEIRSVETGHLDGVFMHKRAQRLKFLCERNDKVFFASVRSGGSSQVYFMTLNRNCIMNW

panel of 442 kinases [9] = molecular target: T9, panel of 442 kinases (Homo sapiens, UniProt Q96SB4); settings: kinase SRPK1; for remaining activity at 1 µM: read-out: SRPK1 (% of control at 1 µM)
T9 construct: purchased Ambit Biosciences (scanMAXX KINOMEscan)

panel of 442 kinases [10] = molecular target: T10, panel of 442 kinases (Homo sapiens, UniProt Q15759); settings: kinase p38-beta; for remaining activity at 1 µM: read-out: % of control at 1 µM
T10 construct: purchased Ambit Biosciences (scanMAXX KINOMEscan)
T10 sequence (Q15759 whole entry): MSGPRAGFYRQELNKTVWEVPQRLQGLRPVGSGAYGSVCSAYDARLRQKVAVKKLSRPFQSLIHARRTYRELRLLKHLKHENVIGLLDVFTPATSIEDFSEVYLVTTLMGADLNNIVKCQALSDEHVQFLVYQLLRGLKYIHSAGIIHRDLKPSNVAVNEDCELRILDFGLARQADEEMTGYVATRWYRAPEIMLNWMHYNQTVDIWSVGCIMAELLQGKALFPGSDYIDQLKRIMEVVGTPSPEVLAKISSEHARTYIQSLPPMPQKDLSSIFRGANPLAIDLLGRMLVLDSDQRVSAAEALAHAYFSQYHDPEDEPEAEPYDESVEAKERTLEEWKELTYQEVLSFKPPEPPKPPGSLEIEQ

[11] = 10 µM, read-out: % of control at 10 µM

T1 sequence (P9WI81 whole entry): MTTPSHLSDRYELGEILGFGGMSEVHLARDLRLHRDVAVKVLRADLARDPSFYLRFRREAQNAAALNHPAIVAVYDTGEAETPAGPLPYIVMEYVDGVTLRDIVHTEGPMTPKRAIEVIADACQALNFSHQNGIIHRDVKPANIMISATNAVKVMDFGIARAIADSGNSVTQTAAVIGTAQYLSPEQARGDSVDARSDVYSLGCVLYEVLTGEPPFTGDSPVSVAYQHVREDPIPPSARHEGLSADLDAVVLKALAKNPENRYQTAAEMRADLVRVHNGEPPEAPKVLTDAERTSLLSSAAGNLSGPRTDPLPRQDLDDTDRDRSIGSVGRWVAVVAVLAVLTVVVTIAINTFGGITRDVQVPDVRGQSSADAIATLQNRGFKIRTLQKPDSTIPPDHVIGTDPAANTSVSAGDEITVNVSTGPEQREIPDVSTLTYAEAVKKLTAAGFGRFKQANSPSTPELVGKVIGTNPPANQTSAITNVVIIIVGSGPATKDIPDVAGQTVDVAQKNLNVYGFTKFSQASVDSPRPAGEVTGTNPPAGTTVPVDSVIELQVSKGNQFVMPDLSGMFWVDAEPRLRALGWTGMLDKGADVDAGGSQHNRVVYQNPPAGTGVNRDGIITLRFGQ

| SMILES | remaining activity at 1 µM (panel of 442 kinases [1]) | remaining activity at 10 µM (panel of 442 kinases [1]) | remaining activity at 1 µM (panel of 442 kinases [2]) | remaining activity at 10 µM (panel of 442 kinases [2]; [11]) | remaining activity at 1 µM (panel of 442 kinases [3]) | remaining activity at 10 µM (panel of 442 kinases [3]; 10 µM, read-out: STK39 (% of control at 10 µM)) | remaining activity at 1 µM (panel of 442 kinases [4]) | remaining activity at 10 µM (panel of 442 kinases [4]; [11]) | remaining activity at 1 µM (panel of 442 kinases [5]) | remaining activity at 10 µM (panel of 442 kinases [5]; [11]) | remaining activity at 1 µM (panel of 442 kinases [6]) | remaining activity at 10 µM (panel of 442 kinases [6]; [11]) | remaining activity at 1 µM (panel of 442 kinases [7]) | remaining activity at 10 µM (panel of 442 kinases [7]; [11]) | remaining activity at 1 µM (panel of 442 kinases [8]) | remaining activity at 10 µM (panel of 442 kinases [8]; [11]) | remaining activity at 1 µM (panel of 442 kinases [9]) | remaining activity at 10 µM (panel of 442 kinases [9]; 10 µM, read-out: SRPK1 (% of control at 10 µM)) | remaining activity at 1 µM (panel of 442 kinases [10]) | remaining activity at 10 µM (panel of 442 kinases [10]; [11]) |
| --- | --- | --- | --- | --- | --- | --- | --- | --- | --- | --- | --- | --- | --- | --- | --- | --- | --- | --- | --- | --- |
| Nc1cc(C(F)(F)F)c(-c2cc(N3CCOCC3)nc(N3CCOCC3)n2)cn1 [Buparlisib] | 100% | 73% | 100% | 95% | 93% | 100% | 94% | 100% | 92% | 100% | 96% | 100% | 90% | 81% | 100% | 100% | 100% | 100% | 99% | 91% |
| Cn1c(=O)n(-c2ccc(C(C)(C)C#N)cc2)c2c3cc(-c4cnc5ccccc5c4)ccc3ncc21 [Dactolisib, 2-methyl-2-[4-(3-methyl-2-oxo-8-quinolin-3-yl-2,3-dihydroimidazo[4,5-c]quinolin-1-yl)-phenyl] propionitrile] | 100% | – | 99% | – | 100% | – | 100% | – | 94% | – | 92% | – | 67% | – | 49% | – | 88% | – | 99% | – |
| COc1ncc(-c2ccc3nccc(-c4ccnnc4)c3c2)cc1NS(=O)(=O)c1ccc(F)cc1F [Omipalisib] | 67% | – | 78% | – | 76% | – | 63% | – | 100% | – | 100% | – | 100% | – | 83% | – | 100% | – | 100% | – |
| CS(=O)(=O)N1CCN(Cc2cc3nc(-c4cccc5[nH]ncc45)nc(N4CCOCC4)c3s2)CC1 [Pictilisib, 2-(1H-indazol-4-yl)-6-(4-methanesulfonyl-piperazin-1-ylmethyl)-4-morpholin-4-yl-t hieno[3,2-d]pyrimidine] | 85% | 55% | – | – | – | – | – | – | – | – | – | – | – | – | – | – | – | – | – | – |
| FC(F)c1nc2ccccc2n1-c1nc(N2CCOCC2)nc(N2CCOCC2)n1 [ZSTK474, 2-(difluoromethyl)-1-[4,6-di(4-morpholinyl)-1,3,5-triazin-2-yl]-1H-benzimidazole] | 86% | – | 100% | – | 95% | – | 100% | – | 77% | – | 100% | – | 100% | – | 100% | – | 67% | – | 70% | – |
